Results reported in patent US7517517B2 (Janssen Pharmaceutica N.V., priority 2002, dated 2009).
Where two headings read alike, the source gives them in different places.

Assays:
[1] = molecular target: T1, rat mGlu1a receptor (Rattus norvegicus, UniProt P23385); test: Intracellular Ca2+ response in rat mGlu1a receptor expressing CHO-dhfr− cells (FLIPR); type: cell-based; conditions: for IC50: read-out: IC50, inhibition of the glutamate-induced increase in [Ca2+]i
T1 construct: host or cells: CHO-dhfr- cells
T1 sequence (P23385 19-1199): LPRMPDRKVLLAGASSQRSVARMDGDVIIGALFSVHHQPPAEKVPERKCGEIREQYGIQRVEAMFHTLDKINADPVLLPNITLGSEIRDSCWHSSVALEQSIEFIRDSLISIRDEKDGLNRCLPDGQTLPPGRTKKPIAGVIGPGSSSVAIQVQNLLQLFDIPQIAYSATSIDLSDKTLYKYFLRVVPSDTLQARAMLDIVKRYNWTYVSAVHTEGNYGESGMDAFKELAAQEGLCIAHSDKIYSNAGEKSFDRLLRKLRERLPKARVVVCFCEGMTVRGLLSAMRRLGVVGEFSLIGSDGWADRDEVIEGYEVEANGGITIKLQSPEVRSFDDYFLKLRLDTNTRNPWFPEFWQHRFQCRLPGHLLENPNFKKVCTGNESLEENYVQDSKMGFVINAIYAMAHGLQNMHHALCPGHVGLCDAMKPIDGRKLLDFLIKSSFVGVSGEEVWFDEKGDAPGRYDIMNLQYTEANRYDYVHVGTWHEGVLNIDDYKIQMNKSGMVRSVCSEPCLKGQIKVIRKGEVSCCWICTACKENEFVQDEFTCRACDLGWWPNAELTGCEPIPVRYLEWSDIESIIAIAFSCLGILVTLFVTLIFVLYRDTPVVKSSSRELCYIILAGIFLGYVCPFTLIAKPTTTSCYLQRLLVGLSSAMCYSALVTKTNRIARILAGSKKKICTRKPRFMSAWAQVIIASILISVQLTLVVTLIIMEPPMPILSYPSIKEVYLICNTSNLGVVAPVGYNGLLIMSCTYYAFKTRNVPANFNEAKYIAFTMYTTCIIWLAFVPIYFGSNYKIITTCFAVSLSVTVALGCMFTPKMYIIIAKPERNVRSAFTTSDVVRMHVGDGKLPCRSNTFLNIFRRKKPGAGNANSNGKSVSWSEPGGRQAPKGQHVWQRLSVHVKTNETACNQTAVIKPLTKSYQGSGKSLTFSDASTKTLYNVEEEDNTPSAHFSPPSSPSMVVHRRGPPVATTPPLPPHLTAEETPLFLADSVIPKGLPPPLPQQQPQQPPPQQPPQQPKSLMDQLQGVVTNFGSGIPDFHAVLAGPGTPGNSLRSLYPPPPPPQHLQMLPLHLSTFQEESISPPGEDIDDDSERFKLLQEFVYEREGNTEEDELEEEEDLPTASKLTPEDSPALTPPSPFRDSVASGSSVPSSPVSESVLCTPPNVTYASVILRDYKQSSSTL

[2] = system: mGlu1 receptor; conditions: literature; cited from earlier work
[3] = molecular target: T1, rat mGlu1a receptor; test: [3H]Compound A binding to rat mGlu1a receptor CHO-dhfr− membranes (saturation, kinetics, inhibition); conditions: for Ki: 2.5 nM [3H]Compound A, 30 min at 4° C.; for Ki / Hill coefficient: mean ± SD of 3–4 experiments; for Hill coefficient: inhibition of [3H]Compound A-binding
[4] = molecular target: T2, mGlu1 receptor (Rattus norvegicus, UniProt P23385); test: [3H]Compound A binding to rat brain membranes (cortex, hippocampus, striatum, cerebellum); conditions: 10 μM; 2.5 nM [3H]Compound A (FIG. 9)
Protocol: Tissue preparation. Male Wistar rats (˜200 g) were sacrificed by decapitation. The brains were rapidly removed and cortex, hippocampus, striatum and cerebellum were immediately dissected. The fresh tissue was homogenized with an Ultra Turrax in 20 volumes of 50 mM Tris-HCl, pH 7.4 and tissue was centrifuged at 23,500 g for 10 min. After homogenisation using a DUAL homogeniser, membranes were washed twice by centrifugation at 23,500 g for 10 min. The final pellet was suspended in 10 volumes of 50 mM Tris-HCl, pH 7.4 and frozen at −80° C.
In vitro binding assay. After thawing, membranes from rat cortex, cerebellum, striatum and hippocampus were rehomogenized using a DUAL and suspended in ice-cold binding buffer containing 50 mM Tris-HCl, 1.2 mM MgCl2, 2 mM CaCl2, pH 7.4. The binding assay was carried out in a total volume of 0.5 ml containing 2.5 nM [^3H]Compound A and a membrane aliquot corresponding to 40 μg for cerebellar membranes, 60 μg for hippocampal membranes, 80 μg for striatal membranes or 150 μg for cortical membranes. […] After incubation for 30 min at 4° C., the labelled membranes were washed and harvested by rapid vacuum filtration over Whatman GF/C glass-fibre filters using a 40-well filtration manifold and radioactivity collected on the filters was counted as above.
Data analysis was performed using the GraphPad Prism program (GraphPad Prism Software, Inc., San Diego, Calif.). Saturation binding experiments were analysed using a non-linear regression analysis. Inhibition curves were fitted using non-linear regression analysis fitting the one-site competition equation: Y=Bottom+((Top−Bottom)/1+10^X-LogIC50). Ki values were calculated using the Cheng-Prusoff equation: Ki=IC50/[1+([C]/KD)] where C is the concentration of radioligand and KD is the dissociation constant of the radioligand (Cheng and Prusoff, Biochem. Pharmacol. 22, 3099-3108, 1973). The observed on (kob) and off (koff) rate were calculated from association-dissociation curves using the one-phase-exponential association and decay equations in the Prism program, respectively. kon was calculated by subtracting koff from kob and dividing by the radioligand concentration. The two-tailed Student's t-test was used for statistical evaluation of the binding data: * p<0.05, ** p<0.01 and *** p<0.001. The Dunnett's t-test following a 2-way analysis of variance (with as factors compound concentration and experiment) were used to analyse the data from the IP experiments.

[5] = molecular target: T2, mGlu1 receptor; test: [3H]Compound A binding and autoradiography on rat brain sections; conditions: 10 μM (FIG. 10, panel C)
Protocol: Tissue preparation. Male Wistar rats (200 g) were sacrificed by decapitation. Brains were immediately removed from the skull and were rapidly frozen in dry-ice-cooled 2-methylbutane (−40° C.). Brains were then stored at −70° C. until sectioning. Twenty-micrometer-thick sagittal sections were cut using a Leica C3050 cryostat microtome (Leica Microsystems, Wetzlar, Germany) and thaw-mounted on SuperFrost Plus microscope slides (Menzle-glaser, Germany). The sections were then kept at −70° C. until use.
Receptor autoradiography. Sections were thawed and dried under a stream of cold air, preincubated (3×5 min) in 50 mM Tris-HCl, 1.2 mM MgCl2, 2 mM CaCl2, 0.1% BSA pH 7.4 at room temperature. […] After the incubation, the excess of radioligand was washed off (3×5 min) in ice-cold buffer containing 50 mM Tris-HCl, 1.2 mM MgCl2 and 2 mM CaCl2, followed by a rapid dip in cold distilled water. The sections were dried under a stream of cold air and then exposed to [^3H]Hyperfilm (Amersham, UK) for 6 weeks at room temperature. The films were developed manually in Kodak D19 and fixed with Kodak Readymatic. Some sections were exposed to a Fuji Imaging Plate for 2 days at room temperature and scanned using a Fujix Bass 2000 phosphoimager.

[6] = molecular target: T1, rat mGlu1a receptor; test: [3H]quisqualate binding to rat mGlu1a receptor CHO-dhfr− membranes (saturation, inhibition)
[7] = system: AMPA receptor; test: [3H]Ro 48-8587 binding to rat forebrain membranes; conditions: [3H]Ro 48-8587, rat forebrain; tested up to 10 μM
Protocol: (§1) Tissue preparation. Male Wistar rats (˜200 g) were sacrificed by decapitation. The brains were rapidly removed and forebrain was dissected. The tissue was homogenized with an Ultra Turrax in 20 volumes of ice-cold H2O and was centrifuged at 48,000 g for 20 min. After homogenisation using a DUAL homogeniser, membranes were washed by centrifugation at 48,000 g for 10 min. The pellet was then suspended in 20 volumes of 50 mM Tris-HCl, pH 7.4 containing 0.04% Triton X-100 and again centrifuged at 48,000 g for 20 min. The final pellet was frozen at −80° C.
(§2) In vitro binding assay. At the day of the experiment, the pellet was thawed, washed and rehomogenised using a DUAL in ice-cold 50 mM Tris-acetate, pH 7.4. Assay conditions for the different radioligands were as follows. The final concentration of membrane in the assay was 20 mg/ml (wet weight) for [^3H]Ro 48-8587 and [^3H]L689560 and was 10 mg/ml (wet weight) for [^3H]CGP39653 and [^3H]MK-801. Radioligand concentrations of 2 nM [^3H]Ro 48-8587, 2 nM [^3H]L689560, 2 nM [^3H]CGP39653 and 3 nM [^3H]MK-801 were used. […] For [^3H]L689560 and [^3H]MK-801 binding, 100 μM D-serine or 10 μM phencyclidine were used to define non-specific binding, respectively. […] Radioactivity collected on the filters was counted as above.

[8] = molecular target: T3, rat mGlu2 receptor (Rattus norvegicus, UniProt P31421); test: [35S]GTPγS binding to membranes from CHO-dhfr− cells expressing the rat mGlu2 receptor; type: biochemical
T3 construct: host or cells: CHO-dhfr- cells
T3 sequence (P31421 19-872): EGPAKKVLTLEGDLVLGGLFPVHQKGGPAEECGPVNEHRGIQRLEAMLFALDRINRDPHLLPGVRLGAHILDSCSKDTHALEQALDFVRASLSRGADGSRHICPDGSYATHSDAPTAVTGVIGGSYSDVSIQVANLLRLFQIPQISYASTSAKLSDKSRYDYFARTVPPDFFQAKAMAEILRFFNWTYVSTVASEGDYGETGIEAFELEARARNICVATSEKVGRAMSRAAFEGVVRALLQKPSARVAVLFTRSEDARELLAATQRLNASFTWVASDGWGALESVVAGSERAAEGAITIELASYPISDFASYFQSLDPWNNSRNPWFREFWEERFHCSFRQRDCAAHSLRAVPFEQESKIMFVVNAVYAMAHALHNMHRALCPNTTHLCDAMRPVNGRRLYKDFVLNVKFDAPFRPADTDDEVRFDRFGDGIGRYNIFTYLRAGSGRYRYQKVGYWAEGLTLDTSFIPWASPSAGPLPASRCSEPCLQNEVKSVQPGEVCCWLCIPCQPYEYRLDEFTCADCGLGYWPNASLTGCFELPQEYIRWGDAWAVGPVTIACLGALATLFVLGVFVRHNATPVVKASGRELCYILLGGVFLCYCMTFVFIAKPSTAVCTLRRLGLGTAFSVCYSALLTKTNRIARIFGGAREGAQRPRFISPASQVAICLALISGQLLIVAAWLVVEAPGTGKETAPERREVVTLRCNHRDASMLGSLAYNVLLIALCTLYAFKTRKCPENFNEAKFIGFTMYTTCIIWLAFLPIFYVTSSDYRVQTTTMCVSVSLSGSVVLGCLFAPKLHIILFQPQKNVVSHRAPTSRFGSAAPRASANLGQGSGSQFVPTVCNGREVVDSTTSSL
Protocol: (§3) Confluent cells were washed in ice-cold phosphate-buffered saline and stored at −20° C. until membrane preparation. After thawing, cells were suspended in 50 mM Tris-HCl, pH 7.4 and collected through centrifugation for 10 min at 23,500 g at 4° C. The cells were lysed in 10 mM hypotonic Tris-HCl, pH 7.4. After recentrifugation for 20 min at 30,000 g at 4° C., the pellet was homogenized with an Ultra Turrax homogenizer in 50 mM Tris-HCl, pH 7.4. Protein concentrations were measured by the Bio-Rad protein assay using bovine serum albumin as standard.
(§4) Membranes were thawed on ice and diluted in 10 mM HEPES acid, 10 mM HEPES salt, pH 7.4, containing 100 mM NaCl, 3 mM MgCl2, 3 μM GDP and 10 μg/ml saponine. Assay mixtures contained 10 μg of membrane protein and were pre-incubated with compounds or buffer for 5 min at 37° C. […] [^35S]GTPγS was added to a final concentration of 0.1 nM for another 30 min at 37° C. Reactions were terminated by rapid filtration through Unifilter-96 GF/B filter plates (Packard, Meriden, Conn.) using a 96-well Packard filtermate harvester. Filters were washed 2 times with ice-cold 10 mM NaH2PO4/10 mM Na2HPO4 buffer, pH 7.4. Filter-bound radioactivity was counted in a Microplate Scintillation and Luminesence Counter from Packard.

[9] = molecular target: T4, rat mGlu5 receptor (Rattus norvegicus, UniProt P31424); test: Intracellular Ca2+ response in rat mGlu5 receptor expressing CHO-dhfr− cells (FLIPR); type: cell-based; conditions: tested up to a concentration of 10 μM
T4 construct: host or cells: CHO-dhfr- cells
Protocol: L929sA cells stably expressing the human mGlu1a receptor were obtained as described in Lavreysen et al., Mol. Pharmacol. 61:1244-1254, 2002 and were cultured in Glutamax-I medium supplemented with 10% heat inactivated dialysed foetal calf serum, 0.1 mg/ml streptomycin sulphate and 100 units/ml penicillin. CHO-dhfr^− cells stably expressing the rat mGlu1a, -2, -3, -4, -5 and -6 receptor were a kind gift from S. Nakanishi (Tokyo University, Japan) and were grown in DMEM with Glutamax-I with 10% heat inactivated dialysed foetal calf serum, 0.4 mM L-prolin, 0.2 mg/ml streptomycin sulphate and 200 units/ml penicillin. Cells were kept in an atmosphere of 37° C. and 5% CO2.
Intracellular calcium ion levels ([Ca^2+]i) in human mGlu1a receptor expressing L929sA cells were measured using the Fluorometric Imaging Plate Reader (FLIPR, Molecular Devices, CA, USA), as described in Lavreysen et al., Mol. Pharmacol. 61:1244-1254, 2002. The same procedure was followed for CHO-dhfr^− cells expressing the rat mGlu1a receptor. For the rat mGlu5 receptor, cells were seeded at 30.000 cells/well 2 days before the experiment.

[10] = molecular target: T1, rat mGlu1a receptor; test: IP response (basal IP accumulation) in rat mGlu1a receptor expressing CHO-dhfr− cells; type: cell-based
[11] = system: glutamate site of the NMDA receptor; test: [3H]CGP39653 binding to rat forebrain membranes; conditions: [3H]CGP39653, rat forebrain; tested up to 10 μM
Protocol: as §1, §2

[12] = molecular target: T5, rat mGlu4 receptor (Rattus norvegicus, UniProt P31423); test: [35S]GTPγS binding to membranes from CHO-dhfr− cells expressing the rat mGlu4 receptor; type: biochemical
T5 construct: host or cells: CHO-dhfr- cells
T5 sequence (P31423 33-912): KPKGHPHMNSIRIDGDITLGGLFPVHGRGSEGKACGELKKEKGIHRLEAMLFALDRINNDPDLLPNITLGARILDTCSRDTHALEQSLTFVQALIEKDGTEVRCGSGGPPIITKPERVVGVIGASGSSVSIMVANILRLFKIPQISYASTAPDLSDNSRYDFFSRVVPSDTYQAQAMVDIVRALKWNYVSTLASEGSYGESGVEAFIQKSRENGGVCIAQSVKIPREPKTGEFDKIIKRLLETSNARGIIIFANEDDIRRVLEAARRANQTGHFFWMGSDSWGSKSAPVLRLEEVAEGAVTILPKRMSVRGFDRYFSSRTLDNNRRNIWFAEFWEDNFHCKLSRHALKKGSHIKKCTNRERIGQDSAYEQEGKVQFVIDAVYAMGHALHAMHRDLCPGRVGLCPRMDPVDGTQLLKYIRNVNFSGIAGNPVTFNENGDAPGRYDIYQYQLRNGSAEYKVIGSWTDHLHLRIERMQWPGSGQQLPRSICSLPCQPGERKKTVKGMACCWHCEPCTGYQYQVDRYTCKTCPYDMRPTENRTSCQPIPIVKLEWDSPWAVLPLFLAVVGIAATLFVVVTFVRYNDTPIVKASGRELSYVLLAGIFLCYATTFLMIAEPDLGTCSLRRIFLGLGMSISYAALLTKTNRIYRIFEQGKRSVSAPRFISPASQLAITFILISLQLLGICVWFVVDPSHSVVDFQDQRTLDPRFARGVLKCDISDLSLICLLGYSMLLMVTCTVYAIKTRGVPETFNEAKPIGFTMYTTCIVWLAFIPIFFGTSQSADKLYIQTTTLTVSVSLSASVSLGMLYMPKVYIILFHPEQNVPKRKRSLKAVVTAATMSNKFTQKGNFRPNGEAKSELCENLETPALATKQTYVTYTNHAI
Protocol: as §3, §4

[13] = molecular target: T6, rat mGlu6 receptor (Rattus norvegicus, UniProt P35349); test: [35S]GTPγS binding to membranes from CHO-dhfr− cells expressing the rat mGlu6 receptor; type: biochemical
T6 construct: host or cells: CHO-dhfr- cells
T6 sequence (P35349 24-871): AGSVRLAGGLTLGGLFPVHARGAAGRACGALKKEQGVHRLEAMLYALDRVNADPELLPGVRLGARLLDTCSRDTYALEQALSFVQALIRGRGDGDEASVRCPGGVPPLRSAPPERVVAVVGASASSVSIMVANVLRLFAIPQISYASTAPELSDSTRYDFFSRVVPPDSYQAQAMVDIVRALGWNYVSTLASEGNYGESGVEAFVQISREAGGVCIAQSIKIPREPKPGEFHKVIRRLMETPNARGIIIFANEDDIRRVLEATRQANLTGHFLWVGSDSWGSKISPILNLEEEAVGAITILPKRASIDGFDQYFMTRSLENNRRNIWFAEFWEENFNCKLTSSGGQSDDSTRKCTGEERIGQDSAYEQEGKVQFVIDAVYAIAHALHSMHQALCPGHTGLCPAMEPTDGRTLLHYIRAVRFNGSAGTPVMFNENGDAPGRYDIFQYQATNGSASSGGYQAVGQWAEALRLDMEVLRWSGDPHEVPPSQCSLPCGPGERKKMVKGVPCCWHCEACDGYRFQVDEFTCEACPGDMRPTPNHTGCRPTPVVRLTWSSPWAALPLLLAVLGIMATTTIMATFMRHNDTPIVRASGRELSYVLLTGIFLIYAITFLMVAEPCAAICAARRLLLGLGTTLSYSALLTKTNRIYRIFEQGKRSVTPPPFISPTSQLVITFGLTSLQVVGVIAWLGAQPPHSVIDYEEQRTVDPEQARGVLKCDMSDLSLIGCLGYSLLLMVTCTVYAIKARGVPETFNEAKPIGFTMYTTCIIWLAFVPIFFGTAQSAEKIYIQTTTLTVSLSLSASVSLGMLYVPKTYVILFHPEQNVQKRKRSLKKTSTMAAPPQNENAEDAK
Protocol: as §3, §4

[14] = molecular target: T7, glycine site of the NMDA receptor (Rattus norvegicus, UniProt P35439); test: [3H]L689560 binding to rat forebrain membranes; conditions: [3H]L689560, rat forebrain; tested up to 10 μM
T7 construct: from tissue; host or cells: rat forebrain membranes
Protocol: as §1, §2

[15] = molecular target: T8, human mGlu1a receptor (Homo sapiens, UniProt Q13255); test: Intracellular Ca2+ response in human mGlu1a receptor expressing L929sA cells (FLIPR); type: cell-based
T8 construct: expressed in transfected cells; host or cells: L929sA cells

[16] = molecular target: T9, rat mGlu3 receptor (Rattus norvegicus, UniProt P31422); test: [35S]GTPγS binding to membranes from CHO-dhfr− cells expressing the rat mGlu3 receptor; type: biochemical
T9 construct: host or cells: CHO-dhfr- cells
T9 sequence (P31422 23-879): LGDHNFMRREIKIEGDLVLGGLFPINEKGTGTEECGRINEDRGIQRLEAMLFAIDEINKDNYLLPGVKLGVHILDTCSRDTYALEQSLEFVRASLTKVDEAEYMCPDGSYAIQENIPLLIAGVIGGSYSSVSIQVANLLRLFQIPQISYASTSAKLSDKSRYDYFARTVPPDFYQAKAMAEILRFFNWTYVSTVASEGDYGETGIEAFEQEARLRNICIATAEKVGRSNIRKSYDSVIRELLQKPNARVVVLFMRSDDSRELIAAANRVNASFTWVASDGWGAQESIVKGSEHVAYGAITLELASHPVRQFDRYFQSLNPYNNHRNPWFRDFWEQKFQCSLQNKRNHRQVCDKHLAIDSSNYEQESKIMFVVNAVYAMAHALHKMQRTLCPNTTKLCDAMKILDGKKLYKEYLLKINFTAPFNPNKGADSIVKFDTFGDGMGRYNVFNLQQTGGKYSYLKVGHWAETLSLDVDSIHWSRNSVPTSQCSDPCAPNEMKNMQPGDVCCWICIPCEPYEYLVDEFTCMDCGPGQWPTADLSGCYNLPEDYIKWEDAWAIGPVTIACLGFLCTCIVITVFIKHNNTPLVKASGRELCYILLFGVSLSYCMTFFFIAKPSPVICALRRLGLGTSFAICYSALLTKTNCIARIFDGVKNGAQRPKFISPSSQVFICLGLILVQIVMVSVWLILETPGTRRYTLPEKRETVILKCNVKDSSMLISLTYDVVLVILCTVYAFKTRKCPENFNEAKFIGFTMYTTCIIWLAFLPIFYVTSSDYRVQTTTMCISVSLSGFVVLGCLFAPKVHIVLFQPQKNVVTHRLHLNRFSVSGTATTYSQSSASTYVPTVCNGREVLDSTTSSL
Protocol: as §3, §4

[17] = rat mGlu1a receptor CHO-dhfr− membranes
[18] = read-out: IC50 for inhibition of glutamate-induced [35S]GTPγS activation
[19] = ratio of IC50 values, rat mGlu1a Ca2+ assay

## C=C1C[C@@H]2COC(=O)[C@]2(Cc2ccc3ccccc3c2)C1 [BAY 36-7620, reference compound]
[1]; CHO-dhfr− cells expressing rat mGlu1a, glutamate 30 μM
  IC50: 0.161 ± 0.038 µM
[2]
  potency of mGlu1 receptor block: 0.16 µM
[3]
  Ki: 11.2 ± 0.93 nM
  Hill coefficient: 0.95 ± 0.02
[3]; [17]
  inhibition of [3H]Compound A binding (in words): nanomolar concentrations
[4]
  inhibition of [3H]Compound A binding to rat cerebellar membranes: maximally inhibited
[5]
  inhibition of [3H]Compound A binding to rat brain sections: completely inhibited
[6]; inhibition of [3H]quisqualate binding, rat mGlu1a receptor CHO-dhfr− membranes, mean ± SD of 2 experiments
  Ki: > 1000 µM
[6]; [17]
  effect on [3H]quisqualate binding (in words): did not affect

## O=C(Cc1ccccc1)c1ccc2nc3c(cc2c1)CCCO3 [Compound A]
[7]
  binding to the AMPA receptor: did not bind
[8]; 10 μM compound together with glutamate, rat mGlu2
  glutamate Emax upon addition of compound (positive allosteric modulation): not increased
[8]; [18]
  IC50: > 30 µM
[8]; up to 30 μM, rat mGlu2
  agonist activity in [35S]GTPγS assay: did not exhibit agonist activity
[9]
  inhibition of glutamate-induced Ca2+ signaling: did not inhibit
[1]; glutamate concentration-response curve in absence and presence of compound (FIG. 1B)
  mode of antagonism: non-competitive
[1]; in the presence of 100 nM-1 μM compound
  inhibition of mGlu1a receptor-mediated signalling: Complete inhibition
[1]; [19]
  times more potent than BAY 36-7620: about 8 times
  times more potent than CPCCOEt: ~500 times
[1]
  IC50: 0.0216 ± 0.005 µM
[10]; 1 μM compound, p<0.05
  decrease of basal IP accumulation: 24±4%
[10]; 100 μM compound
  maximal decrease of basal IP accumulation: 33±3%
[11]
  binding to the glutamate site of the NMDA receptor: nor did it bind
[3]
  Ki: 1.35 ± 0.99 nM
  Hill coefficient: 0.94 ± 0.04
[12]; 10 μM compound together with glutamate, rat mGlu4
  glutamate Emax upon addition of compound (positive allosteric modulation): not increased
[12]; [18]
  IC50: > 30 µM
[12]; up to 30 μM, rat mGlu4
  agonist activity in [35S]GTPγS assay: did not exhibit agonist activity
[13]; 10 μM compound together with glutamate, rat mGlu6
  glutamate Emax upon addition of compound (positive allosteric modulation): not increased
[13]; [18]
  IC50: > 30 µM
[13]; up to 30 μM, rat mGlu6
  agonist activity in [35S]GTPγS assay: did not exhibit agonist activity
[14]
  binding to the glycine site of the NMDA receptor: nor did it bind
[6]
  Ki: > 1000 µM
[6]; [17]
  effect on [3H]quisqualate binding (in words): did not displace
[15]
  IC50: 0.0104 ± 0.0047 µM
[16]; 10 μM compound together with glutamate, rat mGlu3
  glutamate Emax upon addition of compound (positive allosteric modulation): not increased
[16]; [18]
  IC50: > 30 µM
[16]; up to 30 μM, rat mGlu3
  agonist activity in [35S]GTPγS assay: did not exhibit agonist activity
